Ten compounds from publication PMC2865816, “Synthesis and Antiviral Studies of Novel N-Sulphonamidomethyl piperazinyl Fluoroquinolones” (Indian Journal of Pharmaceutical Sciences, 2009) can be followed below.

Molecules are shown by their SMILES. Converted amounts (≈) assume the structure as drawn. Read-outs that look alike come from different tables or passages of the source. Some results are limits rather than exact numbers.

Data set [1] concerns HIV-1 (IIIB). Put plainly: Inhibition of HIV-1 (IIIB) induced cytopathic effect in MT-4 cells, MTT. Format: cell-based. To be noted: for EC50: MTT, 5 d, read-out: EC50, concentration achieving 50% protection of MT-4 cells against the cytopathic effect of HIV. On the technique in general: Damage to the host cells serves as the signal in cytopathic effect assays.
Data set [2] can be described thus: in vitro. To be noted: dog.
The subject of data set [3] is influenza A (H5N1). Put plainly: microbe, parasite or virus in culture. Format: cell-based. The note with it: for EC50: Influenza A virus, H5N1, MDCK, read-out: EC50, 50% effective (virus-inhibitory) concentration; for Selectivity Index (CC50 divided by EC50): strain A(H5N1), MDCK cells.
The subject of data set [4] is influenza B. Kind of data set: microbe, parasite or virus in culture. Format: cell-based. The note with it: strain B, MDCK cells; for EC50: Influenza B virus, CPE inhibition, neutral red, read-out: EC50, 50% effective (virus-inhibitory) concentration.
Data set [5] deals with influenza A (H3N2). Put plainly: microbe, parasite or virus in culture. Format: cell-based. To be noted: for EC50: Influenza A virus, H3N2, MDCK, read-out: EC50, 50% effective (virus-inhibitory) concentration; for Selectivity Index (CC50 divided by EC50): strain A(H3N2), MDCK cells.
In data set [6] the test system is influenza A (H1N1). Kind of data set: microbe, parasite or virus in culture. The note with it: strain A(H1N1), MDCK cells; for EC50: Influenza A virus, CPE inhibition, neutral red, read-out: EC50, 50% effective (virus-inhibitory) concentration. Format: cell-based.
Data set [7] can be described thus: Cytotoxicity against mock-infected MT-4 cells, MTT. Format: cell-based. To be noted: human; mock-infected MT-4 cells, MTT; read-out: CC50, concentration required to reduce the viability of mock-infected MT-4 cells by 50%. As for the experimental part:
(§1) Compounds were tested for their inhibitory effects against replication of HIV-1 (IIIB) in MT-4 cells[1011]. The MT-4 cells were grown and maintained in RPMI 1640 DM medium supplemented with 10% (v/v) heat-inactivated fetal calf serum (FCS), 2 mM-glutamine, 0.1% sodium bicarbonate and 20 μg/ml gentamicin (culture medium). Inhibitory effect of test compounds on HIV-1 replications was monitored by inhibition of virus-induced cytopathic effect in MT-4 cells and was estimated by MTT assay. Briefly, 50 μl of HIV-1 (100-300 CCID50) were added to a flat-bottomed microtiter tray with 50 μl of medium containing various concentrations of compounds. MT-4 cells were added at a final concentration of 6×10^5 cells/ml. After 5 d of incubation at 37°, the number of viable cells were determined by the 3-(4,5-dimethylthiazol-2-yl)-2,5-diphenyl tetrazolium bromide (MTT) method. Cytotoxicity of test compounds against mock-infected MT-4 cells was also assessed by the MTT method. AntiHIV activity and cytotoxicity of standard AZT were also performed by a similar method in MT-4 cells.

The subject of data set [8] is influenza A and B viruses. Put plainly: microbe, parasite or virus in culture. The note with it: MDCK, read-out: concentration inhibiting the replication of influenza A and B viruses. Format: cell-based.
In data set [9] the test system is mock-infected MT-4 cells. Put plainly: Cytotoxicity against mock-infected MT-4 cells, MTT. Format: cell-based. On the procedure:
as §1

Where [10] appears, read: Human immunodeficiency virus 1, MT4, 120 h.

On to `CCn1cc(C(=O)O)c(=O)c2cc(F)c(N3CCN(CNc4ccc(S(=O)(=O)Nc5ncccn5)cc4)CC3)cc21` [NF-SD], for which the EC50 was above 66.8 µM in data set [1] (setting [10]); above 32 mg/L in [3]; above 32 mg/L in data set [4]; above 100 mg/L in data set [5]; above 100 mg/L in data set [6]. Also, the CC50 at 3 d in data set [2] came out at 32 mg/L (≈ 55 µM). The CC50 at 5 d in [7] was found to be 66.8 µM.

In the case of `COc1c(N2CCN(CNc3ccc(S(N)(=O)=O)cc3)CC2)c(F)cc2c(=O)c(C(=O)O)cn(C3CC3)c12` [GF-SA], the EC50 in data set [1] (setting [10]) is above 58.7 µM; in [3], 32 mg/L (≈ 58.7 µM); in data set [4], 36 mg/L (≈ 66 µM); in data set [5], above 100 mg/L; in data set [6] it was above 100 mg/L. In [2], this compound displayed a CC50 above 100 mg/L. Moreover, the “Selectivity Index (CC50 divided by EC50)” value in data set [3] and in data set [4] was above 3 in each case. Also, the CC50 at 5 d in data set [7] amounted to 58.7 µM.

In turn, `NC(=O)c1ncn([C@@H]2O[C@H](CO)[C@@H](O)[C@H]2O)n1` [Ribavirin, ribavirin, reference compound] gave a CC50 in data set [2] above 100 mg/L. The EC50 in data set [3] was 4.3 mg/L (≈ 17.6 µM); in data set [8], 3.7 to 5.9 mg/L (≈ 15.2 to 24.2 µM); in data set [4], 5.5 mg/L (≈ 22.5 µM); in [5], 5.9 mg/L (≈ 24.2 µM); in data set [6], 3.7 mg/L (≈ 15.2 µM). Further, the “Selectivity Index (CC50 divided by EC50)” value is on record as above 23 in [3], above 18 in [4], above 17 in data set [5] and above 27 in [6].

Regarding `Cc1cc(C)nc(NS(=O)(=O)c2ccc(NCN3CCN(c4cc5c(cc4F)c(=O)c(C(=O)O)cn5C4CC4)CC3)cc2)n1` [CF-SDM], the EC50 is above 70.8 µM in data set [1] (setting [10]); above 100 mg/L in data set [3]; 53 mg/L (≈ 85.3 µM) in data set [4]; 30 mg/L (≈ 48.3 µM) in [5]; 18 mg/L (≈ 29 µM) in data set [6]. The compound also had a CC50 in [2] above 100 mg/L. The “Selectivity Index (CC50 divided by EC50)” value is recorded as above 2 in data set [4], above 3.3 in [5] and above 5.6 in data set [6]. For the same compound, the CC50 at 5 d in data set [7] was determined as 70.8 µM.

On to `CCn1cc(C(=O)O)c(=O)c2cc(F)c(N3CCN(CNc4ccc(S(N)(=O)=O)cc4)CC3)cc21` [NF-SA], for which the EC50 in data set [1] (setting [10]) was above 75.5 µM; in [3], above 100 mg/L; in [4], 80 mg/L (≈ 159 µM); in data set [5] it was above 100 mg/L; in data set [6], above 100 mg/L. In data set [2], this compound yielded a CC50 above 100 mg/L. Also, the “Selectivity Index (CC50 divided by EC50)” value in [4] is listed as above 1.3. Also, the CC50 at 5 d in [7] came out at 75.5 µM.

Regarding `O=C(O)c1cn(C2CC2)c2cc(N3CCN(CNc4ccc(S(=O)(=O)Nc5ncccn5)cc4)CC3)c(F)cc2c1=O` [CF-SD], the EC50 in [1] (setting [10]) was above 74.1 µM; in [3] it was 33 mg/L (≈ 55.6 µM); in data set [4] it was 32 mg/L (≈ 53.9 µM); in data set [5], 41 mg/L (≈ 69.1 µM); in data set [6], 16 mg/L (≈ 27 µM). The same compound displayed a CC50 in [2] above 100 mg/L. Also, the “Selectivity Index (CC50 divided by EC50)” value in data set [3] is on record as above 3; in data set [4] it was above 3; in data set [6], above 6.1. The CC50 at 5 d in data set [7] came to 74.1 µM.

Regarding `COc1c(N2CCN(CNc3ccc(S(=O)(=O)Nc4ncccn4)cc3)CC2)c(F)cc2c(=O)c(C(=O)O)cn(C3CC3)c12` [GF-SD], the EC50 in [1] (setting [10]) is above 70.1 µM; in data set [3], above 100 mg/L; in data set [4], 97 mg/L (≈ 156 µM); in data set [5], 52 mg/L (≈ 83.4 µM); in data set [6], 34 mg/L (≈ 54.5 µM). Besides, the CC50 in [2] is above 100 mg/L. Besides, the “Selectivity Index (CC50 divided by EC50)” value in data set [4] is given as above 1; in [5], above 1.9; in [6], above 3. The CC50 at 5 d in data set [7] stood at 70.1 µM.

Consider `Cc1cn([C@H]2C[C@H](N=[N+]=[N-])[C@@H](CO)O2)c(=O)[nH]c1=O` [AZT, reference compound], for which, in data set [1], the “Max Prot” value came out at 106 and the EC50 is 0.0064 µM. The CC50 in data set [9] (mock-infected MT-4 cells, MTT, read-out: CC50, concentration required to reduce the viability of mock-infected MT-4 cells by 50%) is 64.5 µM.

In the case of `CCn1cc(C(=O)O)c(=O)c2cc(F)c(N3CCN(CNc4ccc(S(=O)(=O)Nc5nc(C)cc(C)n5)cc4)CC3)cc21` [NF-SDM], in [1] (setting [10]), the EC50 was above 56.3 µM. In addition, the CC50 at 5 d in data set [7] is 56.3 µM.

On to `COc1c(N2CCN(CNc3ccc(S(=O)(=O)Nc4nc(C)cc(C)n4)cc3)CC2)c(F)cc2c(=O)c(C(=O)O)cn(C3CC3)c12` [GF-SDM], for which the EC50 in data set [1] (setting [10]) is above 39.4 µM; in data set [3], 19 mg/L (≈ 29.2 µM); in data set [4], 11 mg/L (≈ 16.9 µM); in data set [5] it was 38 mg/L (≈ 58.3 µM); in data set [6] it was 33 mg/L (≈ 50.6 µM). In [2], this compound yielded a CC50 above 100 mg/L. Further, the “Selectivity Index (CC50 divided by EC50)” value in [3] is above 5; in data set [4] it was above 9; in data set [5], above 2.6; in data set [6], above 3.1. In addition, the “cytostatic activity in MT-4 cells (in words)” value in data set [9] (MT-4 cells) is given as “marked cytostatic activity”. Moreover, in data set [7], the CC50 at 5 d amounted to 39.4 µM.
